Reference: article PMC4267622, “Pin1-mediated Sp1 phosphorylation by CDK1 increases Sp1 stability and decreases its DNA-binding activity during mitosis” (Nucleic Acids Research, 2014)

Assays:
[1] = target: Pin1 (purified, used in ITC) (UniProt Q13526); assay: ITC; Sp1 peptide (900 mM [sic]) titrated into Pin1 (60 mM [sic]) in the cell; 10 mM HEPES pH 7.5, 100 mM NaCl, 1 mM DTT; 25°C; MicroCal iTC200
CDK1/cyclin B1 = assay: In vitro CDK1/cyclin B1 kinase assay; format: biochemical; details: 15 min; for phosphorylation by CDK1 (as substrate): 1 μg Sp1 protein, 50 ng CDK1/cyclin B1, 30°C; for effect on CDK1-mediated Sp1 phosphorylation: substrate GST-Sp1 (619–785), [γ-^32P] ATP, 30°C
Method: For the in vitro phosphorylation analysis, the GST-Sp1(619-785), GST-Sp1(619-785)-T739A, GST-Sp1(619-785)-T739D, GST-Sp1(619-785)-P6, GST-Sp1(619-785)-Z12, GST-Sp1(619-715) or GST-Sp1(619-740) were purified from Escherichia coli BL21 (DE3). These different Sp1 proteins and active CDK1/cyclin B1 (New England Biolabs, Beverly, MA) were used to examine Sp1 phosphorylation in vitro. Each reaction (20 μl) contained 1 μg of purified Sp1, 50 ng of active CDK1/cyclin B1, 2 μCi of [γ-^32P] ATP (GE Healthcare Life Sciences), 1 mM ATP (New England Biolabs) and […] of 10× kinase buffer containing 500 mM HEPES pH 7.4, 10 mM MgCl2, 1 mM EGTA and 1 mM dithiothreitol. The phosphorylation reactions were incubated at 30°C for 15 min. After the incubation, one-half of the reaction was added to 10 μl of 2×electrophoresis sample buffer, which was then heated to 95°C for 5 min. Proteins in the mixtures were immediately separated using SDS-polyacrylamide gel electrophoresis (PAGE).

[2] = tested on: Sp1-binding probe of p21^WAF1/CIP1 promoter; assay: DNA affinity precipitation assay (DAPA); details: 4°C, 1 h
Method: Cell lysate incubated with 1 μg of binding probes in 500 μl binding of buffer (2 mM MgCl2, 60 mM KCl, 20 mM Tris-HCl pH 7.8, 5% glycerol, 0.5 mM EDTA and 0.02% NP-40). After incubation for 1 h at 4°C, the mixture was incubated with 30 μl of streptavidin-agarose beads (GE Healthcare Life Sciences) for 1 h at 4°C. The mixture was washed three times by binding buffer. The proteins in the beads were eluted by 2X sample buffer and analysed by SDS-PAGE and immunoblotting. The Sp1-binding probe 5′-[…]-3′, localized from −82 to −50 bp within the promoter of p21^WAF1/CIP1, was biotinylated at 5′ termini and then annealed with complementary strands.

HeLa cells = assay: Flow cytometry with PI staining (cell cycle); format: cell-based; details: nocodazole 16 h
Method: The cells washed by cold PBS and then fixed in 70% alcohol or 4% paraformaldehyde at 4°C for 2 h. After fixation, the cells washed by cold PBS and treated with 0.1% TritonX-100, 10μg/ml RNase and 50 μg/ml propidium iodide for 1 h. The cells were analysed by flow cytometer (Cell Lab Quanta™ SC; Beckman Coulter or FACSCalibur; BD Biosciences).

mitotic Sp1 = assay: GST-Pin1 pull-down with HeLa lysates; format: binding; details: mitotic HeLa lysate; for interaction with phospho-Sp1(T739): antibody against phospho-Sp1 (T739)
Method: (§1) The mixture was incubated with shaking for 1 h at 4°C. The beads were washed three times in NETN buffer and added to the interphase or mitotic cell extract. The reaction mixture was incubated on ice for 1 h. The beads were then washed in NETN buffer. Proteins were eluted by sample buffer and separated by SDS- PAGE.

Pin1 [3] = assay: Pin1 interaction of Sp1 mutants (anti-Pin1 immunoprecipitation / pull-down); format: binding; details: mitotic HeLa lysates / pull-down
Method: Cell lysates were prepared by using mRIPA buffer (50 mM Tris-HCl, pH 7.8, 150 mM NaCl, 5 mM ethylenediaminetetraacetic acid (EDTA), 0.1% Triton-X100, 0.05% NP-40). The lysates were incubated with anti-Sp1 (1:500), anti-CDK1 (1:200), anti-Pin1 (1:250), anti-HA tag (1:250), or anti-GFP tag (1:200) antibodies at 4°C for 1 h. After 1 h incubation, the mixture was incubated with Protein A or G Sepharose agarose beads at 4°C for 1 h. The beads were collected and washed three times by mRIPA buffer. The beads were added 2X electrophoresis sample buffer and analysed by immunoblotting.
as §1

Pin1 [4] = target: Pin1 (UniProt Q13526); assay: co-IP with anti-Pin1, Sp1 blot; details: reference: GFP-Sp1 wild type; sites T739
Pin1 [5] = target: Pin1 (UniProt Q13526); assay: isothermal titration calorimetry; details: reference: Thr739-Sp1 peptide (unphosphorylated); sites T739
JNK1 = assay: In vitro kinase assay with JNK1; format: biochemical; details: substrate GST-Sp1(619-785)
Pin1 [6] = assay: Co-localization of Sp1 and Pin1 by immunofluorescence in sub-mitotic stages; format: cell-based; details: HeLa
Method: The cells were fixed with 4% paraformaldehyde (Sigma-Aldrich) in PBS according to a method described previously ([3]). Immunostaining was conducted with primary antibodies such as anti-Sp1, anti-GFP tag (Santa Cruz Biotechnology, Santa Cruz, CA), or anti-Pin1 (Calbiochem, San Diego, CA) antibodies. The cells were then treated with Alexa Fluor 488-conjugated goat anti-mouse or rabbit immunoglobulin G (IgG) and Alexa Fluor 568-conjugated goat anti-mouse or rabbit IgG polyclonal antibodies (Jackson ImmunoResearch Laboratories Inc., West Grove, PA). Finally, the cells were mounted in 90% glycerol containing 4'-6-diamidino-2-phenylindole (DAPI) (Invitrogen), and examined using a confocal laser-scanning microscope (FluoView^TM FV 1000; Olympus, Melville, NY) or immunofluorescence microscope (Personal DV Applied Precision, Issaquah, WA). The images were analysed with softWoRx software (Applied Precision Inc.).

GST-Sp1(619-785) = GST-Sp1(619-785) (UniProt P08047 619-785); assay: DAPA (streptavidin pull-down); DAPA: 1 ug probe in 500 ul 20 mM Tris-HCl pH 7.8, 60 mM KCl, 2 mM MgCl2, 0.5 mM EDTA, 5% glycerol, 0.02% NP-40; 1 h at 4 C, then streptavidin-agarose 1 h at 4 C; details: protein: recombinant; tags: GST; label: 5' biotin on S1 strand; blunt
GST-Sp1(619-785)-T739D = GST-Sp1(619-785)-T739D (UniProt P08047 619-785, T739D); assay: DAPA (streptavidin pull-down); no significant difference from GST-Sp1(619-785); DAPA: 1 ug probe in 500 ul 20 mM Tris-HCl pH 7.8, 60 mM KCl, 2 mM MgCl2, 0.5 mM EDTA, 5% glycerol, 0.02% NP-40; 1 h at 4 C, then streptavidin-agarose 1 h at 4 C; details: protein: recombinant; tags: GST; label: 5' biotin on S1 strand; blunt

## Thr739(p)-Sp1 peptide (from UniProt P08047 735-745)
[1]
  Ka: 7400 M⁻¹
  Kd: 50 µM
  dH: -6.8 kcal/mol
  stoichiometry N: 0.93

## GST-Sp1 (619–740): truncated Sp1, C-terminus (741–785) ablated
CDK1/cyclin B1
  phosphorylation by CDK1 (as substrate): an increased phosphorylation signal was obtained

## Sp1-4A: Sp1 mutant S720A, T723A, T737A and T739A
[2]; mitotic extract of HeLa cells, three independent experiments
  DNA-binding activity to the p21^CIP/WAP promoter: increased its DNA-binding activity to the p21^CIP/WAP promoter
HeLa cells
  cells entered mitosis: 62%

## GST-WW: recognition motif (WW domain) of Pin1
Mitotic Sp1
  interaction with phospho-Sp1(T739): interacted with phospho-Sp1(T739)
CDK1/cyclin B1
  effect on CDK1-mediated Sp1 phosphorylation: but not Pin1-W34A and Pin1-WW, increased the signal

## GST-Sp1 (619–785): truncated Sp1, wild-type C-terminal region
CDK1/cyclin B1
  phosphorylation by CDK1 (as substrate): phosphorylated by CDK1, albeit to a lesser extent

## GST-Sp1 (619–785)-T739A: T739A mutant of GST-Sp1 (619–785)
CDK1/cyclin B1
  phosphorylation by CDK1 (as substrate): No signal was detected

## GST-Sp1 (619–715): truncated Sp1, amino acids 619–715
CDK1/cyclin B1
  phosphorylation by CDK1 (as substrate): No signal was detected

## Pin1-W34A: Pin1 mutated in the recognition domain
Mitotic Sp1
  interaction with mitotic Sp1: but not Pin1-W34A, interacted with mitotic Sp1
CDK1/cyclin B1
  effect on CDK1-mediated Sp1 phosphorylation: but not Pin1-W34A and Pin1-WW, increased the signal

## GST-Sp1 (619–785)-T739D: mimic phosphorylation form of GST-Sp1 (619–785)
[2]; purified GST-Sp1 proteins, four independent experiments
  DNA-binding signal: No significant difference in the DNA-binding signal

## Sp1-T739A: phosphorylation site mutated Sp1
Pin1 [3]
  interaction with Pin1: decreased interaction with Pin1

## Sp1 (from UniProt P08047) GFP-Sp1 T739A
Pin1 [4]
  binding against the reference: weaker

## Sp1 735-745 (from UniProt P08047) Thr739(p)-Sp1 peptide
Pin1 [5]
  other: Ka: 7.4 M⁻¹

## Sp1-T739D: mimic phosphorylated Sp1
Pin1 [3]
  interaction with Pin1: increased interaction with GST-Pin1

## Pin1: recombinant wild-type Pin1, peptidyl-prolyl isomerase
Mitotic Sp1
  interaction with mitotic Sp1: interacted with mitotic Sp1
  interaction with phospho-Sp1(T739): interacted with phospho-Sp1(T739)
JNK1
  effect on JNK1 phosphorylation of Sp1: this phosphorylation remained unaffected
CDK1/cyclin B1
  effect on CDK1-mediated Sp1 phosphorylation: increased the signal of CDK1-mediated Sp1 phosphorylation in a dose dependent manner

## Sp1: transcription factor Sp1; endogenous or GFP-Sp1-WT expressed in HeLa cells
Pin1 [6]; anaphase (within 20–60 min of nocodazole release)
  Sp1 interaction/co-localization with Pin1: 93%
Pin1 [6]; metaphase (within 20–60 min of nocodazole release)
  Sp1 interaction/co-localization with Pin1: 91.4%
Pin1 [6]; prophase (within 20 min of nocodazole release)
  Sp1 interaction/co-localization with Pin1: 81.3%

B1: p21WAF1/CIP1 promoter Sp1 probe (-82 to -50) (dsDNA)
DNA 1: CCCGCCTCCTTGAGGCGGGCCCGGGCGGGGCGG
DNA 2: CCGCCCCGCCCGGGCCCGCCTCAAGGAGGCGGG
GST-Sp1(619-785)
  binding result: binds
GST-Sp1(619-785)-T739D
  binding result: binds
